Our source for the IC50 values is BindingDB's records for doi:10.1021/jm301186p (Universidad De Zaragoza, 2012).

pIC50: −log10 of the molar value.

A short description of the assay: Inhibition of aggregation of human DHFR-fused amyloid beta (1 to 42) expressed in yeast harboring erg6delta assessed as increase in yeast viability measured up to 20 hrs in presence of MTX.
One may read the pIC50 as the negative decadic logarithm of the IC50, by convention in mol/L. On to `O=S(=O)(Nc1ccc(N2CCCCC2)cc1)c1cc(Cl)sc1Cl`, for which the pIC50 was 6.15.

As to `Nc1c(S(=O)(=O)c2ccc(Cl)cc2)cnc2cc(-c3ccccc3)nn12`, the pIC50 is 5.64.

With `O=C(Nc1ccccc1)Nc1ccc(Cl)cc1[N+](=O)[O-]`, the pIC50 is 6.05.

`Cc1nc2sc3c(c2c(=O)o1)CCCC3`: the pIC50 is 5.92.
